Experimental data reported in US12161650B2, “Pharmaceutical compositions comprising a ryanodine receptor modulator and uses thereof” (priority 2021, dated 2024).
Where two headings read alike, the source gives them in different places.

Columns and labels:
[1] = Phase 1 clinical trial, Part II, muscle biopsy: concentration in quadriceps muscle; assay type: in vivo, human (healthy male volunteers); conditions: for Kp (total muscle concentration divided by plasma concentration) / Kp: muscle Day 13 / plasma Day 14 at 3 hours post dose, geom. mean (geom. % CV); for Kp: quadriceps muscle / plasma, read-out: Kpu (unbound muscle concentration divided by plasma concentration)
Experimental: For Study part II (for all groups), Concentrations of Compound I were determined in muscle by performing muscle biopsy on quadriceps muscle on day 13, at least 3 hours after morning dose. Plasma and muscle samples were analyzed by LC-MS/MS method. Muscle biopsy was performed to assess the concentration of Compound I in quadriceps muscle. The biopsy was performed on Day 13 at 3 hours post dose at least. Table 9 summarizes the ratios of unbound respective total concentration at Day 13 at 3 hours post dose divided by the plasma concentration on Day 14 at 3 hours post dose.

[2] = Phase 1 clinical trial, Part II multiple ascending doses over 14 days, plasma pharmacokinetics; assay type: in vivo, human (healthy male volunteers); conditions: for Cmax / Tmax / AUC(0-t) / AUC / half-life: male, human, plasma; for AUC(0-t): read-out: AUC0-24
Experimental: A Phase 1, randomized, double-blind, placebo-controlled clinical trial was performed to assess the safety and pharmacokinetics (PK) of Compound I after single, escalating, and repeated oral doses in health male volunteers.
4-[(7-methoxy-2,3-dihydro-1,4-benzothiazepin-4(5H)yl)methyl]benzoic acid hemi-fumarate (Compound I) was administered in a gastro-resistant tablet according to Example 1. The formulation contained 20 mg, 40 mg, or 200 mg Compound I (based on the mass of 4-[(7-methoxy-2,3-dihydro-1,4-benzothiazepin-4(5H)yl)methyl]benzoic acid). Placebo tablet according to Example 4 was used as comparator.
In Part II, participants from groups I, J, K, and L received repeated doses of 20 mg, 60 mg, 120 mg, or 240 mg Compound I, respectively, or corresponding placebo once daily over a period of 14 days. Forty-one subjects completed Part II: 7/7/8/7 for cohorts I, J, K, L, and twelve placebo.
In Part II, blood samples were collected from each participant as follows: Day 1: 12 samples from the pre-morning dose up to 16 h (pre-dose, 0.25, 0.5, 1, 1.5, 2, 3, 4, 6, 8, 12, and 16 h), Days 2-13: 12 samples at pre-doses (i.e., morning dose); Day 14: 16 samples from the pre-morning dose up to 96 (D14 pre-dose, 0.25, 0.5, 1, 1.5, 2, 3, 4, 6, 8, 12, and 16 h and D15-18: 1 sample before theoretical morning dosing.
The area under the plasma concentration-time curve was calculated using a combined linear and logarithmic trapezoidal rule. The interpolation was linear in the constant and ascending parts of the plasma concentration-time profiles. The interpolation was logarithmic in the descending parts.
For Part II, the same approach was used on AUCτ (Day 14) respectively AUC24 (Day 1), and Cmax.
For each group and treatment, descriptive statistics (N, arithmetic mean, standard deviation, minimum, median, maximum, coefficient of variation, geometric mean, and geometric CV, as appropriate) were calculated for the concentrations and pharmacokinetic parameters of Compound I.
Plasma and muscle samples were analyzed by LC-MS/MS method.

[3] = geometric means across dose groups 20-240 mg, 14-day repeated administration

Kp (total muscle concentration divided by plasma concentration) ([1]; 20 mg once daily): 0.0808 (65.3) (ng/g)/(ng/ml) | Kp (total muscle concentration divided by plasma concentration) ([1]; 60 mg once daily): 0.0640 (22.6) (ng/g)/(ng/ml) | Kp (total muscle concentration divided by plasma concentration) ([1]; 120 mg once daily): 0.0636 (49.9) (ng/g)/(ng/ml) | Kp (total muscle concentration divided by plasma concentration) ([1]; 240 mg once daily): 0.0440 (30.0) (ng/g)/(ng/ml) | Dose proportionality of median unbound and total concentrations in quadriceps muscle ([1]; 20-240 mg once daily): appeared dose proportional | Kp, range of geometric mean ratios across doses ([1]; dose range 20-240 mg): 0.04-0.08 (ng/g)/(ng/mL) | Kp at 3 h ([1]; male, human, quadriceps muscle (unbound) / plasma, oral, dose range 20-240 mg, read-out: Kpu, range of geometric mean ratios across doses): 0.0081 to 0.0106 | Kp ([1]; male, human, oral, 20 mg once daily): 0.0106 | Kp ([1]; male, human, oral, 60 mg once daily): 0.01 | Kp ([1]; male, human, oral, 120 mg once daily): 0.0081 | Kp ([1]; male, human, oral, 240 mg once daily): 0.0081 | Day at which steady-state was attained ([2]; 240 mg cohort): 5 days | Day at which steady-state was attained ([2]; 20, 60, and 120 mg cohorts): 4 days | Time to steady-state ([2]; daily treatment, across cohorts): 3 to 7 days | Accumulation ratio based on AUC [2, 3]: 1.4-1.8 | Accumulation ratio based on Cmax [2, 3]: 1.4-1.8 | Cmax ([2]; oral, 20 mg, 20 mg once daily, Day 1, geom. mean (geom. % CV), n = 8): 2200 ng/mL | Tmax ([2]; oral, 20 mg, 20 mg once daily, Day 1, median (range), n = 8, read-out: tmax): 2.52 h | Cmax ([2]; oral, 20 mg, 20 mg once daily, Day 14, geom. mean): 3110 ng/mL | Tmax ([2]; oral, 20 mg, 20 mg once daily, Day 14, median, read-out: tmax): 3 h | Cmax ([2]; oral, 60 mg, 60 mg once daily, Day 1, geom. mean): 6090 ng/mL | Tmax ([2]; oral, 60 mg, 60 mg once daily, Day 1, median, read-out: tmax): 3 h | Cmax ([2]; oral, 60 mg, 60 mg once daily, Day 14, geom. mean): 8840 ng/mL | Tmax ([2]; oral, 60 mg, 60 mg once daily, Day 14, median, read-out: tmax): 1.45 h | Cmax ([2]; oral, 120 mg, 120 mg once daily, Day 1, geom. mean): 11500 ng/mL | Tmax ([2]; oral, 120 mg, 120 mg once daily, Day 1, median, read-out: tmax): 3 h | Cmax ([2]; oral, 120 mg, 120 mg once daily, Day 14, geom. mean): 16300 ng/mL | Tmax ([2]; oral, 120 mg, 120 mg once daily, Day 14, median, read-out: tmax): 3.5 h | Cmax ([2]; oral, 240 mg, 240 mg once daily, Day 1, geom. mean): 23900 ng/mL | Tmax ([2]; oral, 240 mg, 240 mg once daily, Day 1, median, read-out: tmax): 3 h | Cmax ([2]; oral, 240 mg, 240 mg once daily, Day 14, geom. mean): 34900 ng/mL | Tmax ([2]; oral, 240 mg, 240 mg once daily, Day 14, median, read-out: tmax): 3 h | AUC(0-t) ([2]; oral, 20 mg once daily (Treatment I), Day 1, geom. mean, n = 7): 24.3 µg·h/mL | AUC ([2]; oral, 20 mg once daily, Day 14, geom. mean): 40.1 µg·h/mL | half-life ([2]; oral, 20 mg once daily, Day 14, geom. mean, read-out: t1/2, z (converted)): 19.3 h | AUC(0-t) ([2]; oral, 60 mg once daily (Treatment J, n = 7), Day 1, geom. mean): 69.2 µg·h/mL | AUC ([2]; oral, 60 mg once daily, Day 14, geom. mean): 115 µg·h/mL | half-life ([2]; oral, 60 mg once daily, Day 14, geom. mean, read-out: t1/2, z (converted)): 19.7 h | AUC(0-t) ([2]; oral, 120 mg once daily (Treatment K, n = 8), Day 1, geom. mean): 138 µg·h/mL | AUC ([2]; oral, 120 mg once daily, Day 14, geom. mean): 221 µg·h/mL | half-life ([2]; oral, 120 mg once daily, Day 14, geom. mean, read-out: t1/2, z (converted)): 19.3 h | AUC(0-t) ([2]; oral, 240 mg once daily (Treatment L, n = 7), Day 1, geom. mean): 270 µg·h/mL | AUC ([2]; oral, 240 mg once daily, Day 14, geom. mean): 465 µg·h/mL | half-life ([2]; oral, 240 mg once daily, Day 14, geom. mean, read-out: t1/2, z (converted)): 19.8 h | half-life ([2]; oral, based on the results of the single and repeat dose studies, read-out: Mean apparent terminal half-life (converted)): ~20 h | Tmax ([2]; po, after 14-days of repeated once daily oral administrations, across cohorts, read-out: median Tmax): 3 to 4 h | Dose proportionality regarding AUCτ resp. AUC0-24 and Cmax ([2]; repeated doses, graphical inspections): dose proportionality
Compound: COc1ccc2c(c1)CN(Cc1ccc(C(=O)O)cc1)CCS2.O=C(O)/C=C/C(=O)O [Compound I, 4-[(7-methoxy-2,3-dihydro-1,4-benzothiazepin-4(5H)yl)methyl]benzoic acid hemifumarate]
Non-linearity with the time and dose ([2]; repeated oral administrations at 20, 60, 120, and 240 mg/d): No evidence of non-linearity with the time and dose was observed
